Measured values taken from ChEMBL document CHEMBL1125506, “Fluoronaphthyridines as antibacterial agents. 6. Synthesis and structure-activity relationships of new chiral 7-(1-, 3-, 4-, and 6-methyl-2,5-diazabicyclo[2.2.1]heptan-2-yl)naphthyridine analogues of 7-[(1R,4R)-2,5- diazabicyclo[2.2.1]heptan-2-yl]-1-(1,1-dimethylethyl)-6-fluoro-1,4-dihy …” (J Med Chem, 1992).
Values after ≈ are worked out from the molar mass of the structure shown.

Columns and labels:
[1] = Peak concentration in blood after intravenous administration to mice; assay type: ADME, organism-based; set-up: route intravenous; conditions: mouse
[2] = Peak concentration in blood after peroral administration to mice; assay type: ADME, organism-based; set-up: route oral; conditions: mouse, po
Mus musculus [3] = experiment: Area under curve measured as conc vs time after intravenous administration to mice.; assay type: ADME, organism-based; set-up: unit not given here; conditions: in vivo
Mus musculus [4] = experiment: Area under curve measured as conc vs time after peroral administration to mice.; assay type: ADME, organism-based; set-up: unit not given here; conditions: in vivo, po
[5] = Solubility (water, 22C, pH 7.2); assay type: physicochemical; conditions: read-out: S
[6] = Plasma half-life after intravenous administration to mice; assay type: ADME, organism-based; conditions: mouse
[7] = Plasma half-life after peroral administration to mice; assay type: ADME, organism-based; conditions: mouse, po
[8] = percent urinary recovery in 24 hr after intravenous administration to mice; assay type: ADME, organism-based; conditions: mouse, urine, read-out: UR
[9] = Percent urinary recovery in 24 hr after peroral administration to mice; assay type: ADME, organism-based; conditions: mouse, urine, po; read-out: UR
[10] = Acute toxicity after intravenous administration to mice; assay type: organism-based; conditions: mouse, in vivo
[11] = Acute toxicity after peroral administration to mice; assay type: organism-based; conditions: mouse, in vivo, po
Escherichia coli = experiment: In vitro antibacterial activity against Escherichia coli A15119; assay type: functional
Enterobacter cloacae = experiment: In vitro antibacterial activity against Enterobacter cloacae A9656; assay type: functional
Klebsiella pneumoniae = experiment: In vitro antibacterial activity against Klebsiella pneumoniae A9664; assay type: functional
Morganella morganii = experiment: In vitro antibacterial activity against Morganella morganii A15153; assay type: functional
Pseudomonas aeruginosa = experiment: In vitro antibacterial activity against Pseudomonas aeruginosa A9843; assay type: functional
Proteus mirabilis = experiment: In vitro antibacterial activity against Proteus mirabilis A9900; assay type: functional
Staphylococcus aureus = experiment: In vitro antibacterial activity against Staphylococcus aureus A9537; assay type: functional
Serratia marcescens = experiment: In vitro antibacterial activity against Serratia marcescens A20019; assay type: functional
Mus musculus [12] = experiment: In vivo efficacy on systemic infections caused by Escherichia coli A15119 in mice after intramuscular administration; assay type: functional; conditions: im, read-out: PD50
Mus musculus [13] = experiment: In vivo efficacy on systemic infections caused by Escherichia coli A15119 in mice after peroral administration; assay type: functional; conditions: po, read-out: PD50
Mus musculus [14] = experiment: In vivo efficacy on systemic infections caused by Pseudomonas aeruginosa A9843 in mice after peroral administration; assay type: functional; conditions: po, read-out: PD50
[15] = Partition coefficient (logD); assay type: physicochemical; conditions: octanol/water
Mus musculus [16] = experiment: In vivo efficacy on systemic infections caused by Pseudomonas aeruginosa A9843 in mice after intramuscular administration; assay type: functional; conditions: im, read-out: PD50
Bacteroides fragilis = experiment: In vitro antibacterial activity against Bacteroides fragilis A-22,862; assay type: functional
Enterococcus faecalis = experiment: In vitro antibacterial activity against Enterococcus faecalis A9809; assay type: functional
Streptococcus pneumoniae = experiment: In vitro antibacterial activity against Streptococcus pneumoniae A9585.; assay type: functional
Mus musculus [17] = experiment: In vivo efficacy on systemic infections caused by Staphylococcus aureus A15090 in mice after peroral administration; assay type: functional; conditions: po, read-out: PD50
Mus musculus [18] = experiment: In vivo efficacy on systemic infections caused by Staphylococcus aureus A15090 in mice after intramuscular administration; assay type: functional; conditions: im, read-out: PD50

Row | SMILES | solubility [5] [µg/mL] | MIC (Escherichia coli) [µg/mL] | MIC (Enterobacter cloacae) [µg/mL] | MIC (Klebsiella pneumoniae) [µg/mL] | MIC (Morganella morganii) [µg/mL] | MIC (Pseudomonas aeruginosa) [µg/mL] | MIC (Proteus mirabilis) [µg/mL] | MIC (Staphylococcus aureus) [µg/mL] | MIC (Serratia marcescens) [µg/mL] | logD [15] | MIC (Bacteroides fragilis) [µg/mL] | MIC (Enterococcus faecalis) [µg/mL] | MIC (Streptococcus pneumoniae) [µg/mL] | Cmax [1] [ng/mL] | Cmax [2] [ng/mL] | AUC (Mus musculus [3]) | AUC (Mus musculus [4]) | half-life [6] [h] | half-life [7] [h] | dose excreted at 24 h [8] [%] | also measured
1 | CN1C[C@H]2C[C@@H]1CN2c1nc2c(cc1F)c(=O)c(C(=O)O)cn2C(C)(C)C | 310 (≈ 828 µM) | 0.25 (≈ 0.668 µM) | 0.13 (≈ 0.347 µM) | 0.13 (≈ 0.347 µM) | 0.5 (≈ 1.34 µM) | 2 (≈ 5.34 µM) | 1 (≈ 2.67 µM) | 0.13 (≈ 0.347 µM) | 0.25 (≈ 0.668 µM) | 0.21 | – | – | – | 14000 | 13000 | 14 | 18 | 1.6 | 1.33 | 15 | dose excreted at 24 h [9]: 3%; LD50 [10]: 188 mg/kg; LD50 [11]: 1000 mg/kg; ED50 (Mus musculus [12]): 1 mg/kg; ED50 (Mus musculus [13]): 2.4 mg/kg; ED50 (Mus musculus [14]): 10.2 mg/kg; ED50 (Mus musculus [16]): 4.7 mg/kg
2 | C[C@H]1[C@H]2C[C@H](CN2)N1c1nc2c(cc1F)c(=O)c(C(=O)O)cn2C(C)(C)C.Cl | 1330 | 0.03 | 0.13 | 0.5 | 1 | 2 | 1 | 0.06 | 0.25 | -0.22 | 8 | 1 | 1 | 22000 | 9000 | 22 | 17 | 1.22 | 1.08 | 16 | dose excreted at 24 h [9]: 16%; ED50 (Mus musculus [14]): 22 mg/kg; ED50 (Mus musculus [17]): 5.4 mg/kg; ED50 (Mus musculus [16]): 12.5 mg/kg
3 | C[C@@H]1[C@H]2C[C@H](CN2)N1c1nc2c(cc1F)c(=O)c(C(=O)O)cn2C(C)(C)C.Cl | 11800 | 0.016 | 0.06 | 0.25 | 0.5 | 1 | 0.5 | 0.03 | 0.25 | 0.17 | 1 | 0.5 | 0.13 | 13000 | 5000 | 10 | 5 | 0.733 | 0.8 | 2 | dose excreted at 24 h [9]: 1%; ED50 (Mus musculus [12]): 2.4 mg/kg; ED50 (Mus musculus [13]): 12.5 mg/kg; ED50 (Mus musculus [14]): 22 mg/kg; ED50 (Mus musculus [18]): 7.5 mg/kg; ED50 (Mus musculus [17]): 13.1 mg/kg; ED50 (Mus musculus [16]): 12.5 mg/kg

Second part, led by results:

Row | solubility [5] [µg/mL] | MIC (Escherichia coli) [µg/mL] | MIC (Enterobacter cloacae) [µg/mL] | MIC (Klebsiella pneumoniae) [µg/mL] | MIC (Morganella morganii) [µg/mL] | MIC (Pseudomonas aeruginosa) [µg/mL] | MIC (Proteus mirabilis) [µg/mL] | MIC (Staphylococcus aureus) [µg/mL] | MIC (Serratia marcescens) [µg/mL] | logD [15] | MIC (Bacteroides fragilis) [µg/mL] | MIC (Enterococcus faecalis) [µg/mL] | MIC (Streptococcus pneumoniae) [µg/mL] | SMILES | Cmax [1] [ng/mL] | Cmax [2] [ng/mL] | AUC (Mus musculus [3]) | AUC (Mus musculus [4]) | half-life [6] [h] | half-life [7] [h] | dose excreted at 24 h [8] [%] | also measured
4 | 67 | 0.03 | 0.016 | 0.03 | 0.25 | 1 | 0.25 | 0.03 | 0.13 | 0.02 | 16 | 1 | 0.5 | CC(C)(C)n1cc(C(=O)O)c(=O)c2cc(F)c(N3C[C@@]4(C)C[C@@H]3CN4)nc21.Cl | – | – | – | – | – | – | – | –
5 | 70 | 0.016 | 0.016 | 0.016 | 0.13 | 0.25 | 0.13 | 0.016 | 0.13 | 0.73 | 4 | 0.25 | 0.13 | Cc1c(F)c(N2[C@H]3CN[C@H](C3)[C@@H]2C)nc2c1c(=O)c(C(=O)O)cn2C1CC1.Cl | – | – | – | – | – | – | – | –
6 | 6 | 0.25 | 0.25 | 0.5 | 2 | 4 | 2 | 1 | 1 | -0.37 | 64 | 16 | 2 | CC(C)(C)n1cc(C(=O)O)c(=O)c2cc(F)c(N3C[C@H]4C[C@]3(C)CN4)nc21.Cl | – | – | – | – | – | – | – | –
7 | 250 | 0.03 | 0.03 | 0.13 | 0.5 | 2 | 0.5 | 0.016 | 0.5 | 1.3 | 16 | 0.5 | 0.5 | Cc1c(F)c(N2C[C@H]3C[C@@H]2[C@H](C)N3)nc2c1c(=O)c(C(=O)O)cn2C(C)(C)C.Cl | – | – | – | – | – | – | – | –
